In PubChem BioAssay (NCI) one finds GI50 and TGI data, which are given here for eight molecules.

Test systems include HT29 colon; IGROV1 ovarian; HCT-116 colon; SK-MEL-28 melanoma; HCC-2998 colon; ACHN renal; SF-539 CNS; NCI-H23 lung; KM12 colon; EKVX NSCLC.
Holding throughout (test): growth of human tumour cells (NCI), 48 h

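Assay format: 96-well plates, 48-hour exposure. The concentration for 50% growth inhibition is given as GI50. TGI: concentration producing complete growth inhibition.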

With `COc1cc(-c2nn(-c3cccc(NC(=O)c4cccc(C(F)(F)F)c4)c3)cc2-c2ccncc2)ccc1Cl`, the GI50 is 1.39 µM in the experiment on HT29 colon; 1.83 µM in the experiment on IGROV1 ovarian; 1.67 µM with HCT-116 colon; 2.49 µM with SK-MEL-28 melanoma; 2.24 µM in the experiment with HCC-2998 colon; 1.89 µM in the experiment on ACHN renal. The GI50 in the experiment on SF-539 CNS was 0.895 µM; with NCI-H23 lung it was 1.56 µM; with KM12 colon it was 1660 nM. The TGI was 20.1 µM in the experiment with HT29 colon; over 50 µM in the experiment with IGROV1 ovarian; over 50 µM in the experiment with HCT-116 colon; over 50 µM in the experiment with SK-MEL-28 melanoma; 17.6 µM in the experiment on HCC-2998 colon; over 50 µM in the experiment on ACHN renal. Moreover, the TGI in the experiment on SF-539 CNS was 2.3 µM; with NCI-H23 lung, 32.5 µM; with KM12 colon it was over 50 µM.
As for `O=C(Nc1cccc(C(F)(F)F)c1)Nc1ccc(OCc2nnc(-c3ccccc3)o2)c(F)c1`, the GI50 with HT29 colon was 5.08 µM; with IGROV1 ovarian, 5.5 µM; with HCT-116 colon it was 3.02 µM; in the experiment with SK-MEL-28 melanoma it was 10.3 µM; in the experiment on HCC-2998 colon, 6.4 µM; with ACHN renal it was 2.92 µM. In addition, the GI50 in the experiment with SF-539 CNS is 5.1 µM; with NCI-H23 lung, 4.49 µM; in the experiment with KM12 colon it was 2430 nM. Moreover, the TGI amounted to 58.5 µM in the experiment with HT29 colon; 26.6 µM with IGROV1 ovarian; 16.5 µM in the experiment on HCT-116 colon; 66.5 µM in the experiment with SK-MEL-28 melanoma; 59.8 µM in the experiment on HCC-2998 colon; 12.3 µM in the experiment on ACHN renal. Also, the TGI came to 23.2 µM in the experiment on SF-539 CNS, 24.5 µM with NCI-H23 lung and 12.8 µM in the experiment with KM12 colon.
With `OCCn1c(-c2ccncc2)c(-c2ccc(F)cc2)c2ncccc21`, the GI50 in the experiment with HT29 colon was over 25 µM; with IGROV1 ovarian it was over 25 µM; with HCT-116 colon, over 25 µM; in the experiment with SK-MEL-28 melanoma it was over 25 µM; with HCC-2998 colon it was over 25 µM; in the experiment on ACHN renal, 24.8 µM. Also, the GI50 in the experiment on SF-539 CNS was over 25 µM; with NCI-H23 lung it was over 25 µM; in the experiment on KM12 colon, over 25000 nM. Also, the TGI with HT29 colon, in the experiment with IGROV1 ovarian, with HCT-116 colon, in the experiment with SK-MEL-28 melanoma, in the experiment with HCC-2998 colon and with ACHN renal was over 25 µM each time. For the same molecule, the TGI in the experiment with SF-539 CNS, in the experiment with NCI-H23 lung and with KM12 colon was over 25 µM throughout.
In the case of `c1csc(-c2[nH]nc3c2CCc2ccccc2-3)c1`, the GI50 is 15.6 µM in the experiment with HT29 colon; 19.4 µM with IGROV1 ovarian; 14.9 µM in the experiment on HCT-116 colon; 19.2 µM in the experiment on SK-MEL-28 melanoma; 1.15 µM with HCC-2998 colon; 18.1 µM in the experiment on ACHN renal. Moreover, the values for the GI50 in the experiment with SF-539 CNS, in the experiment on NCI-H23 lung and in the experiment with KM12 colon were 12.9 µM, 16.1 µM and 406 nM, respectively. Further, the TGI worked out at 42.6 µM in the experiment with HT29 colon; 73 µM in the experiment on IGROV1 ovarian; 29.3 µM with HCT-116 colon; 39.7 µM in the experiment on SK-MEL-28 melanoma; 28.6 µM in the experiment on HCC-2998 colon; 85 µM with ACHN renal. Further, the TGI in the experiment with SF-539 CNS came to 29 µM; with NCI-H23 lung, 42.9 µM; with KM12 colon, 14.9 µM.
On to `CCc1c[nH]c2ncnc(N3CC[C@](N)(CNC(=O)c4ccc(F)cc4F)C3)c12`, for which the GI50 is 3.1 µM in the experiment on HT29 colon; 0.207 µM in the experiment on IGROV1 ovarian; 8.91 µM in the experiment with HCT-116 colon; 7.46 µM in the experiment on SK-MEL-28 melanoma; 11.5 µM in the experiment on HCC-2998 colon; 9.46 µM with ACHN renal. The results for the GI50 in the experiment on SF-539 CNS, in the experiment on NCI-H23 lung and in the experiment on KM12 colon were 0.381 µM, 18.6 µM and 1250 nM, respectively. Moreover, the TGI with HT29 colon is over 100 µM; in the experiment with IGROV1 ovarian, 6.67 µM; with HCT-116 colon it was over 100 µM; in the experiment on SK-MEL-28 melanoma, over 100 µM; with HCC-2998 colon it was over 100 µM; in the experiment on ACHN renal, over 100 µM. Besides, the TGI with SF-539 CNS is 29.4 µM; in the experiment on NCI-H23 lung, over 100 µM; in the experiment on KM12 colon it was over 100 µM.
Regarding `Cn1c(=O)c(Oc2ccc(F)cc2F)cc2cnc(NC3CCC(O)CC3)nc21` (stereo not given), the GI50 in the experiment with HT29 colon, in the experiment with IGROV1 ovarian, in the experiment on HCT-116 colon, in the experiment with SK-MEL-28 melanoma, in the experiment on HCC-2998 colon and in the experiment on ACHN renal was over 25 µM each time. In addition, the GI50 with SF-539 CNS is over 25 µM; with NCI-H23 lung, over 25 µM; with KM12 colon it was over 25000 nM. The TGI in the experiment with HT29 colon, with IGROV1 ovarian, in the experiment on HCT-116 colon, in the experiment with SK-MEL-28 melanoma, in the experiment with HCC-2998 colon and with ACHN renal was over 25 µM throughout. Also, the TGI in the experiment on SF-539 CNS, in the experiment with NCI-H23 lung and in the experiment on KM12 colon was over 25 µM in each case.
In the case of `O=C1C(=O)c2c(ccc3ccccc23)-c2ccccc21`, the GI50 was 2.52 µM with HT29 colon; 0.384 µM in the experiment with HCT-116 colon; 1.73 µM with SK-MEL-28 melanoma; 2.65 µM in the experiment with HCC-2998 colon; 2.74 µM in the experiment on ACHN renal; 1.89 µM in the experiment on SF-539 CNS. Besides, the values for the GI50 with EKVX NSCLC, in the experiment on NCI-H23 lung and in the experiment on KM12 colon were 1980 nM, 1.76 µM and 1600 nM, respectively. Besides, the TGI in the experiment on HT29 colon was 6.21 µM; in the experiment with HCT-116 colon it was 2.87 µM; in the experiment on SK-MEL-28 melanoma, 3.67 µM; in the experiment on HCC-2998 colon it was 7.75 µM; in the experiment on ACHN renal, over 100 µM; in the experiment on SF-539 CNS, 4.07 µM. Besides, the TGI in the experiment with EKVX NSCLC was 5.39 µM; with NCI-H23 lung it was 4.63 µM; in the experiment with KM12 colon, 2.99 µM.
As to `COC(=O)CCSC(=O)Nc1ccccc1Cl`, the TGI with HT29 colon, with HCT-116 colon, with SK-MEL-28 melanoma, with HCC-2998 colon, in the experiment on ACHN renal and in the experiment with SF-539 CNS was over 100 µM throughout. The TGI in the experiment with EKVX NSCLC, with NCI-H23 lung and in the experiment on KM12 colon was over 100 µM in each case.
